Data reported in ChEMBL document CHEMBL1201862, “PubChem BioAssay data set” (2004).
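The compound was tested at five concentrations on cells cultured in 96-well plates, with a 48-hour exposure period. At the GI50, growth is halved.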 Active and inactive are the calls of the source. No stated cut-off is given here; in the data, active = GI50 up to about 1.1 µM and inactive = higher.

Experiments:
Assay in all cases: growth of human tumour cells (NCI), 48 h
[1] = tested on: COLO 205
[2] = tested on: RXF 393
[3] = tested on: 786-0
[4] = tested on: SF-268
[5] = tested on: HOP-62
[6] = tested on: OVCAR-5
[7] = tested on: IGROV-1
[8] = tested on: SK-MEL-5
[9] = tested on: SW-620
[10] = tested on: PC-3
[11] = tested on: SK-MEL-28
[12] = tested on: SN12C
[13] = tested on: U-251
[14] = tested on: MDA-MB-435
[15] = tested on: A549
[16] = tested on: UO-31
[17] = tested on: LOX IMVI
[18] = tested on: MDA-N
[19] = tested on: A498
[20] = tested on: RPMI-8226

Structure (SMILES) | GI50 [1] | GI50 [2] | GI50 [3] | GI50 [4] | GI50 [5] | GI50 [6] | GI50 [7] | GI50 [8] | GI50 [9] | GI50 [10] | GI50 [11] | GI50 [12] | GI50 [13] | GI50 [14] | GI50 [15] | GI50 [16] | GI50 [17] | GI50 [18] | GI50 [19] | GI50 [20]
O=C1C=CC(=NNc2ccccc2)C=CC1=O | 13.5 µM (inactive) | 99.8 µM (inactive) | 18.4 µM (inactive) | 16.3 µM (inactive) | 10.8 µM (inactive) | 20.8 µM (inactive) | 7.94 µM (inactive) | 11.5 µM (inactive) | 6.58 µM (inactive) | 8.67 µM (inactive) | 14.4 µM (inactive) | 16.7 µM (inactive) | 7.71 µM (inactive) | 12.9 µM (inactive) | 10.7 µM (inactive) | 17.8 µM (inactive) | 5.09 µM (inactive) | – | – | –
COc1c(-c2nc3ccc(N4CCN(C)CC4)nc3[nH]2)cc(OC)c2[nH]c(CO)nc12 | > 100 µM (inactive) | > 100 µM (inactive) | 69.3 µM (inactive) | 92.3 µM (inactive) | 99.5 µM (inactive) | > 100 µM (inactive) | > 100 µM (inactive) | > 100 µM (inactive) | > 100 µM (inactive) | – | > 100 µM (inactive) | 53 µM (inactive) | 29.6 µM (inactive) | 56.8 µM (inactive) | > 100 µM (inactive) | > 100 µM (inactive) | 85.5 µM (inactive) | > 100 µM (inactive) | > 100 µM (inactive) | –
CC12CCC(/C(=N/c3cc(C(F)(F)F)cc(C(F)(F)F)c3)C1=O)C2(C)C (centres undefined) | 19.1 µM (inactive) | 12.3 µM (inactive) | 35.5 µM (inactive) | 33.3 µM (inactive) | 39.8 µM (inactive) | 56.4 µM (inactive) | 25.2 µM (inactive) | 48.2 µM (inactive) | 28.1 µM (inactive) | 27.5 µM (inactive) | 25.8 µM (inactive) | – | 35.4 µM (inactive) | 38.3 µM (inactive) | 31.9 µM (inactive) | 52 µM (inactive) | 15.2 µM (inactive) | – | 22.3 µM (inactive) | 17.8 µM (inactive)
Cc1ccc2nc(-c3ccc(N)c(I)c3)sc2c1 | 17.1 µM (inactive) | 24 µM (inactive) | 15.8 µM (inactive) | 23.2 µM (inactive) | 28.8 µM (inactive) | 35.9 µM (inactive) | – | 29.4 µM (inactive) | 20.9 µM (inactive) | 8.49 µM (inactive) | > 100 µM (inactive) | – | 26.1 µM (inactive) | 19.2 µM (inactive) | 15.2 µM (inactive) | 7.06 µM (inactive) | – | – | 20.4 µM (inactive) | –
Cc1cc2ccccc2n2c1nc1ccc(O)cc12 | > 10 µM (inactive) | > 10 µM (inactive) | > 10 µM (inactive) | > 10 µM (inactive) | > 10 µM (inactive) | > 10 µM (inactive) | > 10 µM (inactive) | > 10 µM (inactive) | > 10 µM (inactive) | > 10 µM (inactive) | > 10 µM (inactive) | 9.35 µM (inactive) | 7.71 µM (inactive) | > 10 µM (inactive) | > 10 µM (inactive) | – | – | – | – | > 10 µM (inactive)
CCN(CC)CCNC(=O)c1cccc2nc3ccccc3nc12 | 3.78 µM (inactive) | 12.4 µM (inactive) | 27 µM (inactive) | 0.318 µM (active) | 13.2 µM (inactive) | 15.8 µM (inactive) | 38.3 µM (inactive) | > 46 µM (inactive) | 5.48 µM (inactive) | – | 17.5 µM (inactive) | 10.3 µM (inactive) | 16.9 µM (inactive) | – | 8.05 µM (inactive) | > 24.8 µM (inactive) | 4.4 µM (inactive) | – | 11.7 µM (inactive) | 7.64 µM (inactive)
Clc1nc(Cl)c(Cl)c(-c2ccccc2)n1 | – | 13.6 µM (inactive) | 2.21 µM (inactive) | 23.9 µM (inactive) | 4.03 µM (inactive) | 20.3 µM (inactive) | 15.4 µM (inactive) | 2.43 µM (inactive) | 1.94 µM (inactive) | 10.5 µM (inactive) | 16 µM (inactive) | 20 µM (inactive) | 15.1 µM (inactive) | 14.6 µM (inactive) | 13.8 µM (inactive) | 18.1 µM (inactive) | 1.86 µM (inactive) | – | – | 5.24 µM (inactive)
Nc1ncc2c(n1)-c1ccccc1OC2N1CCOCC1 (centres undefined) | > 100 µM (inactive) | > 100 µM (inactive) | > 100 µM (inactive) | > 100 µM (inactive) | > 100 µM (inactive) | > 100 µM (inactive) | > 100 µM (inactive) | > 100 µM (inactive) | > 100 µM (inactive) | > 100 µM (inactive) | > 100 µM (inactive) | > 100 µM (inactive) | > 100 µM (inactive) | > 100 µM (inactive) | > 100 µM (inactive) | > 100 µM (inactive) | > 100 µM (inactive) | > 100 µM (inactive) | – | > 100 µM (inactive)
CC(=O)NNc1nc(C)c(C(/C=C/c2ccc(Cl)cc2)=N/NC(=S)NN)s1 | > 100 µM (inactive) | > 100 µM (inactive) | > 100 µM (inactive) | > 100 µM (inactive) | > 100 µM (inactive) | > 100 µM (inactive) | > 100 µM (inactive) | > 100 µM (inactive) | > 100 µM (inactive) | – | > 100 µM (inactive) | > 100 µM (inactive) | > 100 µM (inactive) | – | > 100 µM (inactive) | > 100 µM (inactive) | > 100 µM (inactive) | – | > 100 µM (inactive) | > 100 µM (inactive)
COC(=O)/C(=N\NC(N)=S)C(C(=O)OC)C(=O)C(=O)Nc1ccc(C)cc1 (centres undefined) | > 100 µM (inactive) | > 100 µM (inactive) | > 100 µM (inactive) | > 100 µM (inactive) | > 100 µM (inactive) | > 100 µM (inactive) | > 100 µM (inactive) | > 100 µM (inactive) | > 100 µM (inactive) | – | > 100 µM (inactive) | > 100 µM (inactive) | > 100 µM (inactive) | – | > 100 µM (inactive) | > 100 µM (inactive) | > 100 µM (inactive) | – | > 100 µM (inactive) | > 100 µM (inactive)
Sc1nnc(COc2ccc(Cl)cc2)[nH]1 | > 100 µM (inactive) | > 100 µM (inactive) | > 100 µM (inactive) | > 100 µM (inactive) | > 100 µM (inactive) | > 100 µM (inactive) | > 100 µM (inactive) | > 100 µM (inactive) | > 100 µM (inactive) | – | > 100 µM (inactive) | > 100 µM (inactive) | > 100 µM (inactive) | – | > 100 µM (inactive) | > 100 µM (inactive) | > 100 µM (inactive) | – | > 100 µM (inactive) | > 100 µM (inactive)
CCOC(=O)c1c(N2CCOCC2)[nH]c(=O)c(C(c2ccc(N(C)C)cc2)c2c(O)c(C(=O)OCC)c(N3CCOCC3)[nH]c2=O)c1O | > 100 µM (inactive) | > 100 µM (inactive) | > 100 µM (inactive) | > 100 µM (inactive) | > 100 µM (inactive) | > 100 µM (inactive) | – | > 100 µM (inactive) | > 100 µM (inactive) | > 100 µM (inactive) | > 100 µM (inactive) | > 100 µM (inactive) | > 100 µM (inactive) | > 100 µM (inactive) | > 100 µM (inactive) | > 100 µM (inactive) | 59 µM (inactive) | – | > 100 µM (inactive) | 46.6 µM (inactive)
O=c1c2cccc3cccc(c4n1CCCN=4)c32 | > 100 µM (inactive) | > 100 µM (inactive) | > 100 µM (inactive) | > 100 µM (inactive) | > 100 µM (inactive) | 88.1 µM (inactive) | > 100 µM (inactive) | > 100 µM (inactive) | 92.5 µM (inactive) | – | > 100 µM (inactive) | > 100 µM (inactive) | > 100 µM (inactive) | – | > 100 µM (inactive) | 80.4 µM (inactive) | 20.1 µM (inactive) | – | > 100 µM (inactive) | > 100 µM (inactive)
CC1=NN(C(=O)c2ccc(Cl)cc2)C(=O)/C1=C/c1ccc(Cl)cc1 | > 100 µM (inactive) | > 100 µM (inactive) | > 100 µM (inactive) | > 100 µM (inactive) | > 100 µM (inactive) | > 100 µM (inactive) | > 100 µM (inactive) | > 100 µM (inactive) | > 100 µM (inactive) | – | > 100 µM (inactive) | > 100 µM (inactive) | > 100 µM (inactive) | – | > 100 µM (inactive) | > 100 µM (inactive) | > 100 µM (inactive) | – | > 100 µM (inactive) | > 100 µM (inactive)
CC(=O)OC1CCCn2c1nc1c2C(=O)C(C)=C(N2CC2)C1=O (centres undefined) | 0.535 µM (active) | 0.284 µM (active) | 0.222 µM (active) | 0.251 µM (active) | 0.216 µM (active) | 0.356 µM (active) | 0.962 µM (active) | 0.185 µM (active) | 0.167 µM (active) | – | 0.522 µM (active) | 0.308 µM (active) | 0.201 µM (active) | – | 0.316 µM (active) | 0.605 µM (active) | 0.303 µM (active) | – | 0.161 µM (active) | 1.07 µM (active)
CN(C)/N=N/c1ccc(C(N)=O)cc1 | > 100 µM (inactive) | > 100 µM (inactive) | > 100 µM (inactive) | > 100 µM (inactive) | > 100 µM (inactive) | > 100 µM (inactive) | > 100 µM (inactive) | > 100 µM (inactive) | > 100 µM (inactive) | – | > 100 µM (inactive) | > 100 µM (inactive) | > 100 µM (inactive) | – | > 100 µM (inactive) | > 100 µM (inactive) | > 100 µM (inactive) | – | > 100 µM (inactive) | > 100 µM (inactive)
